The source made the active and inactive calls. The rule behind the calls is not given here.
Test system: CCRIS mutagenicity, Ames/micronucleus/aberration tests
Experiment: CCRIS mutagenicity studies
[1] = Test System: AMES SALMONELLA TYPHIMURIUM, Strain/Indicator: TA98, Metabolic Activation: NONE, Method: PREINCUBATION
[2] = Test System: AMES SALMONELLA TYPHIMURIUM, Strain/Indicator: TA98, Metabolic Activation: NONE, Method: STANDARD PLATE
[3] = Test System: AMES SALMONELLA TYPHIMURIUM, Strain/Indicator: TA98, Metabolic Activation: RAT, LIVER, S-9, AROCLOR 1254, Method: PREINCUBATION
[4] = Test System: AMES SALMONELLA TYPHIMURIUM, Strain/Indicator: TA100, Metabolic Activation: NONE, Method: PREINCUBATION
[5] = Test System: AMES SALMONELLA TYPHIMURIUM, Strain/Indicator: TA100, Metabolic Activation: NONE, Method: STANDARD PLATE
[6] = Test System: AMES SALMONELLA TYPHIMURIUM, Strain/Indicator: TA100, Metabolic Activation: RAT, LIVER, S-9, AROCLOR 1254, Method: PREINCUBATION
[7] = Test System: AMES SALMONELLA TYPHIMURIUM, Strain/Indicator: TA1535, Metabolic Activation: NONE, Method: PREINCUBATION
[8] = Test System: AMES SALMONELLA TYPHIMURIUM, Strain/Indicator: TA1535, Metabolic Activation: NONE, Method: STANDARD PLATE
[9] = Test System: AMES SALMONELLA TYPHIMURIUM, Strain/Indicator: TA1535, Metabolic Activation: RAT, LIVER, S-9, AROCLOR 1254, Method: PREINCUBATION
[10] = Test System: AMES SALMONELLA TYPHIMURIUM, Strain/Indicator: TA1537, Metabolic Activation: NONE, Method: PREINCUBATION
[11] = Test System: AMES SALMONELLA TYPHIMURIUM, Strain/Indicator: TA1537, Metabolic Activation: NONE, Method: STANDARD PLATE
[12] = Test System: AMES SALMONELLA TYPHIMURIUM, Strain/Indicator: TA1537, Metabolic Activation: RAT, LIVER, S-9, AROCLOR 1254, Method: PREINCUBATION
[13] = Test System: AMES SALMONELLA TYPHIMURIUM, Strain/Indicator: TA1538, Metabolic Activation: NONE, Method: STANDARD PLATE

C[C@]12CCC(=O)C=C1[C@@H]1C[C@@H]1[C@H]1[C@@H]3[C@@H]4C[C@@H]4[C@@]4(CCC(=O)O4)[C@@]3(C)CC[C@@H]12
mutagenic call (End Point: IN VITRO CHROMOSOMAL ABERRATIONS, Test System: HUMAN PERIPHERAL LYMPHOCYTES, Metabolic Activation: NONE): inactive; negative | mutagenic call (End Point: IN VITRO CHROMOSOMAL ABERRATIONS, Test System: HUMAN PERIPHERAL LYMPHOCYTES, Metabolic Activation: RAT, LIVER, S-9, AROCLOR 1254): inactive; negative | mutagenic call (End Point: IN VIVO MICRONUCLEUS, Test System: BONE MARROW POLYCHROMATIC ERYTHROCYTES, Species: MOUSE, Strain/Sex: NMRI/MALE, FEMALE, Route: INTRAGASTRIC): inactive; negative | mutagenic call [1]: inactive; negative | mutagenic call [2]: inactive; negative | mutagenic call [3]: inactive; negative | mutagenic call (Test System: AMES SALMONELLA TYPHIMURIUM, Strain/Indicator: TA98, Metabolic Activation: RAT, LIVER, S-9, AROCLOR 1254, Method: STANDARD PLATE): inactive; negative | mutagenic call [4]: inactive; negative | mutagenic call [5]: inactive; negative | mutagenic call [6]: inactive; negative | mutagenic call (Test System: AMES SALMONELLA TYPHIMURIUM, Strain/Indicator: TA100, Metabolic Activation: RAT, LIVER, S-9, AROCLOR 1254, Method: STANDARD PLATE): inactive; negative | mutagenic call [7]: inactive; negative | mutagenic call [8]: inactive; negative | mutagenic call [9]: inactive; negative | mutagenic call (Test System: AMES SALMONELLA TYPHIMURIUM, Strain/Indicator: TA1535, Metabolic Activation: RAT, LIVER, S-9, AROCLOR 1254, Method: STANDARD PLATE): inactive; negative | mutagenic call [10]: inactive; negative | mutagenic call [11]: inactive; negative | mutagenic call [12]: inactive; negative | mutagenic call (Test System: AMES SALMONELLA TYPHIMURIUM, Strain/Indicator: TA1537, Metabolic Activation: RAT, LIVER, S-9, AROCLOR 1254, Method: STANDARD PLATE): inactive; negative | mutagenic call (Test System: AMES SALMONELLA TYPHIMURIUM, Strain/Indicator: TA1538, Metabolic Activation: NONE, Method: PREINCUBATION): inactive; negative | mutagenic call [13]: inactive; negative | mutagenic call (Test System: AMES SALMONELLA TYPHIMURIUM, Strain/Indicator: TA1538, Metabolic Activation: RAT, LIVER, S-9, AROCLOR 1254, Method: PREINCUBATION): inactive; negative | mutagenic call (Test System: AMES SALMONELLA TYPHIMURIUM, Strain/Indicator: TA1538, Metabolic Activation: RAT, LIVER, S-9, AROCLOR 1254, Method: STANDARD PLATE): inactive; negative | mutagenic call (Test System: CHINESE HAMSTER V-79, Strain/Indicator: V-79 (HGPRT)/6-THIOGUANINE, Metabolic Activation: NONE): inactive; negative | mutagenic call (Test System: CHINESE HAMSTER V-79, Strain/Indicator: V-79 (HGPRT)/6-THIOGUANINE, Metabolic Activation: RAT, LIVER, S-9, AROCLOR 1254): inactive; negative

Nc1ncnc2c1ncn2[C@@H]1O[C@H](CO)C[C@H]1O
mutagenic call [2]: active; positive | mutagenic call (Test System: AMES SALMONELLA TYPHIMURIUM, Strain/Indicator: TA98, Metabolic Activation: RAT, LIVER, S-9, POLYCHLORINATED BIPHENYLS, Method: STANDARD PLATE): active; positive | mutagenic call [5]: active; positive | mutagenic call (Test System: AMES SALMONELLA TYPHIMURIUM, Strain/Indicator: TA100, Metabolic Activation: RAT, LIVER, S-9, POLYCHLORINATED BIPHENYLS, Method: STANDARD PLATE): active; positive

CC(=O)Nc1ccc(Oc2ccc(N(O)C(C)=O)cc2)cc1
mutagenic call (Test System: AMES SALMONELLA TYPHIMURIUM, Strain/Indicator: TA98(1,8-DNP6), Metabolic Activation: NONE, Method: PREINCUBATION): active; positive | mutagenic call (Test System: AMES SALMONELLA TYPHIMURIUM, Strain/Indicator: TA98(1,8-DNP6), Metabolic Activation: RAT, LIVER, S-9, AROCLOR 1254, Method: PREINCUBATION): active; positive | mutagenic call (Test System: AMES SALMONELLA TYPHIMURIUM, Strain/Indicator: TA98(NR), Metabolic Activation: NONE, Method: PREINCUBATION): active; positive | mutagenic call (Test System: AMES SALMONELLA TYPHIMURIUM, Strain/Indicator: TA98(NR), Metabolic Activation: RAT, LIVER, S-9, AROCLOR 1254, Method: PREINCUBATION): active; positive | mutagenic call [1]: active; positive | mutagenic call [3]: active; positive | mutagenic call (Test System: AMES SALMONELLA TYPHIMURIUM, Strain/Indicator: TA100(NR), Metabolic Activation: NONE, Method: PREINCUBATION): active; positive | mutagenic call (Test System: AMES SALMONELLA TYPHIMURIUM, Strain/Indicator: TA100(NR), Metabolic Activation: RAT, LIVER, S-9, AROCLOR 1254, Method: PREINCUBATION): active; positive | mutagenic call [4]: active; positive | mutagenic call [6]: active; positive

NC(Cc1c[nH]c2ccccc12)C(=O)O (stereo unspecified)
mutagenic call (Test System: AMES SALMONELLA TYPHIMURIUM, Strain/Indicator: TA98, Metabolic Activation: RAT LIVER S-9, CHLOROPHENE, Method: STANDARD PLATE (COMPOUND HEATED AT 250 DEGREES CELSIUS FOR 20 MIN)): inactive; negative

O=[N+]([O-])c1ccc(Nc2ccc(N=C=S)cc2)cc1
mutagenic call [1]: inactive; negative | mutagenic call [2]: inactive; negative | mutagenic call [3]: inactive; negative | mutagenic call (Test System: AMES SALMONELLA TYPHIMURIUM, Strain/Indicator: TA98, Metabolic Activation: RAT, LIVER, S-9, AROCLOR 1254 OR PHENOBARBITOL, Method: STANDARD PLATE): inactive; negative | mutagenic call [5]: inactive; negative | mutagenic call (Test System: AMES SALMONELLA TYPHIMURIUM, Strain/Indicator: TA100, Metabolic Activation: RAT, LIVER, S-9, AROCLOR 1254 OR PHENOBARBITOL, Method: STANDARD PLATE): inactive; negative | mutagenic call [8]: inactive; negative | mutagenic call (Test System: AMES SALMONELLA TYPHIMURIUM, Strain/Indicator: TA1535, Metabolic Activation: RAT, LIVER, S-9, AROCLOR 1254 OR PHENOBARBITOL, Method: STANDARD PLATE): inactive; negative | mutagenic call [11]: inactive; negative | mutagenic call (Test System: AMES SALMONELLA TYPHIMURIUM, Strain/Indicator: TA1537, Metabolic Activation: RAT, LIVER, S-9, AROCLOR 1254 OR PHENOBARBITOL, Method: STANDARD PLATE): inactive; negative | mutagenic call [13]: inactive; negative | mutagenic call (Test System: AMES SALMONELLA TYPHIMURIUM, Strain/Indicator: TA1538, Metabolic Activation: RAT, LIVER, S-9, AROCLOR 1254 OR PHENOBARBITOL, Method: STANDARD PLATE): inactive; negative

Oc1ccc2c(O)cccc2c1
mutagenic call (Test System: AMES SALMONELLA TYPHIMURIUM, Strain/Indicator: TA102, Metabolic Activation: NONE, Method: PREINCUBATION): active; positive | mutagenic call (Test System: AMES SALMONELLA TYPHIMURIUM, Strain/Indicator: TA2637, Metabolic Activation: RAT, LIVER, S-9, PHENOBARBITAL AND 5,6-BENZOFLAVONE, Method: PREINCUBATION): active; positive

C(=C/c1ccccc1)/c1ccccc1
mutagenic call (Test System: AMES SALMONELLA TYPHIMURIUM, Strain/Indicator: TA98, Metabolic Activation: HAMSTER, LIVER, S-9, AROCLOR 1254, Method: PREINCUBATION): inactive; negative | mutagenic call [1]: inactive; negative | mutagenic call [3]: inactive; negative | mutagenic call (Test System: AMES SALMONELLA TYPHIMURIUM, Strain/Indicator: TA100, Metabolic Activation: HAMSTER, LIVER, S-9, AROCLOR 1254, Method: PREINCUBATION): inactive; negative | mutagenic call [4]: inactive; negative | mutagenic call [6]: inactive; negative | mutagenic call (Test System: AMES SALMONELLA TYPHIMURIUM, Strain/Indicator: TA1535, Metabolic Activation: HAMSTER, LIVER, S-9, AROCLOR 1254, Method: PREINCUBATION): inactive; negative | mutagenic call [7]: inactive; negative | mutagenic call [9]: inactive; negative | mutagenic call (Test System: AMES SALMONELLA TYPHIMURIUM, Strain/Indicator: TA1537, Metabolic Activation: HAMSTER, LIVER, S-9, AROCLOR 1254, Method: PREINCUBATION): inactive; negative | mutagenic call [10]: inactive; negative | mutagenic call [12]: inactive; negative

— PubChem BioAssay AID1259407 (Chemical Carcinogenesis Research Information System (CCRIS), 2018)
